Assay results published in ChEMBL document CHEMBL2021896, “A novel pyrimidine derivatives with aryl urea, thiourea and sulfonamide moieties: synthesis, anti-inflammatory and antimicrobial evaluation” (2012).
Converted amounts (≈) assume the structure as drawn. The source made the active and inactive calls. No cut-off for these calls is given here.

What was measured:
[1] = test system: THP-1; assay: Antiinflammatory activity in human PMA-stimulated THP1 cells assessed as inhibition of LPS-induced TNFalpha production at 10 uM treated 30 mins before LPS challenge measured after 24 hrs by ELISA; type: functional
[2] = test system: Staphylococcus aureus; assay: Antibacterial activity against Staphylococcus aureus by agar well diffusion method; type: functional
[3] = test system: Bacillus subtilis; assay: Antibacterial activity against Bacillus subtilis by agar well diffusion method; type: functional
[4] = test system: THP-1; assay: Antiinflammatory activity in human PMA-stimulated THP1 cells assessed as inhibition of LPS-induced IL-6 production at 10 uM treated 30 mins before LPS challenge measured after 24 hrs by ELISA; type: functional
[5] = test system: Fusarium solani; assay: Antifungal activity against Fusarium solani by agar well diffusion method; type: functional
[6] = test system: Salmonella typhimurium; assay: Antibacterial activity against Salmonella typhimurium by agar well diffusion method; type: functional, Salmonella enterica subsp. enterica serovar Typhimurium; conditions: Salmonella enterica
[7] = test system: Aspergillus niger; assay: Antifungal activity against Aspergillus niger by agar well diffusion method; type: functional
[8] = test system: Candida albicans; assay: Antifungal activity against Candida albicans by agar well diffusion method; type: functional
[9] = test system: Escherichia coli; assay: Antibacterial activity against Escherichia coli by agar well diffusion method; type: functional
[10] = test system: Aspergillus flavus; assay: Antifungal activity against Aspergillus flavus by agar well diffusion method; type: functional
[11] = test system: Salmonella typhimurium; assay: Antibacterial activity against Salmonella typhimurium up to 200 ug/ml by agar well diffusion method; type: functional, organism-based; conditions: Salmonella enterica subsp. enterica serovar Typhimurium
[12] = test system: Aspergillus niger; assay: Antifungal activity against Aspergillus niger up to 200 ug/ml by agar well diffusion method; type: functional, organism-based
[13] = test system: Fusarium solani; assay: Antifungal activity against Fusarium solani up to 200 ug/ml by agar well diffusion method; type: functional, organism-based
[14] = test system: Candida albicans; assay: Antifungal activity against Candida albicans up to 200 ug/ml by agar well diffusion method; type: functional, organism-based
[15] = test system: Aspergillus flavus; assay: Antifungal activity against Aspergillus flavus up to 200 ug/ml by agar well diffusion method; type: functional, organism-based
[16] = test system: Bacillus subtilis; assay: Antibacterial activity against Bacillus subtilis up to 200 ug/ml by agar well diffusion method; type: functional, organism-based
[17] = test system: Staphylococcus aureus; assay: Antibacterial activity against Staphylococcus aureus up to 200 ug/ml by agar well diffusion method; type: functional, organism-based
[18] = test system: Escherichia coli; assay: Antibacterial activity against Escherichia coli up to 200 ug/ml by agar well diffusion method; type: functional, organism-based

MIC [2] [µg/mL]	MIC [3] [µg/mL]	MIC [5] [µg/mL]	MIC [6] [µg/mL]	MIC [7] [µg/mL]	MIC [8] [µg/mL]	MIC [9] [µg/mL]	MIC [10] [µg/mL]	Compound	inhibition at 10 µM [1] [%]	inhibition at 10 µM [4] [%]	Activity [11]	Activity [12]	Activity [13]	Activity [14]	Activity [15]	Activity [16]	Activity [17]	Activity [18]
45 (≈ 84.8 µM)	30 (≈ 56.5 µM)	15 (≈ 28.3 µM)	35 (≈ 66 µM)	15 (≈ 28.3 µM)	25 (≈ 47.1 µM)	25 (≈ 47.1 µM)	40 (≈ 75.4 µM)	COc1ccc(OC)c(S(=O)(=O)Nc2ccc(-c3cc(Nc4cccc(C(F)(F)F)c4)ncn3)cc2)c1	8	26								
90 (≈ 186 µM)	90 (≈ 186 µM)	90 (≈ 186 µM)			90 (≈ 186 µM)	90 (≈ 186 µM)	90 (≈ 186 µM)	Fc1ccccc1NC(=S)Nc1ccc(-c2cc(Nc3cccc(C(F)(F)F)c3)ncn2)cc1	50	62	inactive	inactive						
90 (≈ 183 µM)		20 (≈ 40.8 µM)	90 (≈ 183 µM)	40 (≈ 81.5 µM)	20 (≈ 40.8 µM)	90 (≈ 183 µM)	20 (≈ 40.8 µM)	N#Cc1cccc(NC(=S)Nc2ccc(-c3cc(Nc4cccc(C(F)(F)F)c4)ncn3)cc2)c1	11	16						inactive		
		15 (≈ 28.1 µM)		25 (≈ 46.9 µM)	15 (≈ 28.1 µM)		15 (≈ 28.1 µM)	FC(F)(F)c1cccc(Nc2cc(-c3ccc(NC(=S)Nc4ccccc4C(F)(F)F)cc3)ncn2)c1	68	82	inactive					inactive	inactive	inactive
		90 (≈ 272 µM)		80 (≈ 242 µM)	80 (≈ 242 µM)		80 (≈ 242 µM)	Nc1ccc(-c2cc(Nc3cccc(C(F)(F)F)c3)ncn2)cc1	0	6	inactive					inactive	inactive	inactive
15 (≈ 29.9 µM)	10 (≈ 19.9 µM)	90 (≈ 179 µM)	15 (≈ 29.9 µM)		90 (≈ 179 µM)	15 (≈ 29.9 µM)	90 (≈ 179 µM)	Cc1ccc(F)cc1S(=O)(=O)Nc1ccc(-c2cc(Nc3cccc(C(F)(F)F)c3)ncn2)cc1	48	56		inactive						
35 (≈ 70 µM)	35 (≈ 70 µM)	90 (≈ 180 µM)	30 (≈ 60 µM)			30 (≈ 60 µM)		FC(F)(F)c1cccc(Nc2cc(-c3ccc(NC(=S)Nc4ccc(Cl)cc4)cc3)ncn2)c1	23	28		inactive		inactive	inactive			
		15 (≈ 36 µM)		15 (≈ 36 µM)	20 (≈ 48.1 µM)		20 (≈ 48.1 µM)	Clc1ccc(COC(Cn2ccnc2)c2ccc(Cl)cc2Cl)c(Cl)c1 (configuration not stated) [MICONAZOLE]										
25 (≈ 50.9 µM)	40 (≈ 81.4 µM)		40 (≈ 81.4 µM)			20 (≈ 40.7 µM)		CC(C)c1ccc(NC(=O)Nc2ccc(-c3cc(Nc4cccc(C(F)(F)F)c4)ncn3)cc2)cc1	71	90		inactive	inactive	inactive	inactive			
90 (≈ 186 µM)			90 (≈ 186 µM)			90 (≈ 186 µM)		Cc1cccc(S(=O)(=O)Nc2ccc(-c3cc(Nc4cccc(C(F)(F)F)c4)ncn3)cc2)c1	14	25		inactive	inactive	inactive	inactive	inactive		
25 (≈ 48.3 µM)	40 (≈ 77.3 µM)	20 (≈ 38.7 µM)	80 (≈ 155 µM)	35 (≈ 67.6 µM)	25 (≈ 48.3 µM)	35 (≈ 67.6 µM)	20 (≈ 38.7 µM)	O=C(Nc1ccc(-c2cc(Nc3cccc(C(F)(F)F)c3)ncn2)cc1)Nc1cccc(C(F)(F)F)c1	28	40								
40 (≈ 80.7 µM)	65 (≈ 131 µM)	20 (≈ 40.4 µM)	45 (≈ 90.8 µM)	20 (≈ 40.4 µM)	55 (≈ 111 µM)	25 (≈ 50.5 µM)	35 (≈ 70.6 µM)	N#Cc1cccc(S(=O)(=O)Nc2ccc(-c3cc(Nc4cccc(C(F)(F)F)c4)ncn3)cc2)c1	0	12								
75 (≈ 151 µM)	90 (≈ 182 µM)	90 (≈ 182 µM)	90 (≈ 182 µM)		90 (≈ 182 µM)	90 (≈ 182 µM)	90 (≈ 182 µM)	CSc1ccc(NC(=O)Nc2ccc(-c3cc(Nc4cccc(C(F)(F)F)c4)ncn3)cc2)cc1	0	0		inactive						
		75 (≈ 158 µM)		90 (≈ 190 µM)	80 (≈ 169 µM)		80 (≈ 169 µM)	N#Cc1ccc(NC(=O)Nc2ccc(-c3cc(Nc4cccc(C(F)(F)F)c4)ncn3)cc2)cc1	61	80	inactive					inactive	inactive	inactive
20 (≈ 33.3 µM)	25 (≈ 41.6 µM)	75 (≈ 125 µM)	25 (≈ 41.6 µM)		90 (≈ 150 µM)	25 (≈ 41.6 µM)		FC(F)(F)c1cccc(Nc2cc(-c3ccc(NC(=S)Nc4cc(C(F)(F)F)cc(C(F)(F)F)c4)cc3)ncn2)c1	0	0		inactive			inactive			

Continued, compound first:

Compound	MIC [2] [µg/mL]	MIC [3] [µg/mL]	MIC [5] [µg/mL]	MIC [6] [µg/mL]	MIC [7] [µg/mL]	MIC [8] [µg/mL]	MIC [9] [µg/mL]	MIC [10] [µg/mL]	inhibition at 10 µM [1] [%]	inhibition at 10 µM [4] [%]	Activity [11]	Activity [12]	Activity [13]	Activity [14]	Activity [15]	Activity [16]	Activity [17]	Activity [18]
O=S(=O)(Nc1ccc(-c2cc(Nc3cccc(C(F)(F)F)c3)ncn2)cc1)c1ccc(OC(F)(F)F)cc1	15 (≈ 27.1 µM)	20 (≈ 36.1 µM)		10 (≈ 18 µM)			15 (≈ 27.1 µM)		0	8		inactive	inactive	inactive	inactive			
CC1(C)OB(c2ccc([N+](=O)[O-])cc2)OC1(C)C						90 (≈ 361 µM)			0	0	inactive	inactive	inactive		inactive	inactive	inactive	inactive
COc1ccc(NC(=S)Nc2ccc(-c3cc(Nc4cccc(C(F)(F)F)c4)ncn3)cc2)cc1			90 (≈ 182 µM)			80 (≈ 161 µM)		90 (≈ 182 µM)	3	8	inactive	inactive				inactive	inactive	inactive
O=[N+]([O-])c1ccc(-c2cc(Cl)ncn2)cc1					90 (≈ 382 µM)	90 (≈ 382 µM)		90 (≈ 382 µM)	0	0	inactive		inactive			inactive	inactive	inactive
O=S(=O)(Nc1ccc(-c2cc(Nc3cccc(C(F)(F)F)c3)ncn2)cc1)c1ccc(Br)cc1	80 (≈ 146 µM)				95 (≈ 173 µM)	80 (≈ 146 µM)		95 (≈ 173 µM)	6	11	inactive					inactive		inactive
O=C(O)c1cn(C2CC2)c2cc(N3CCNCC3)c(F)cc2c1=O [CIPROFLOXACIN]	20 (≈ 60.4 µM)	15 (≈ 45.3 µM)		20 (≈ 60.4 µM)			15 (≈ 45.3 µM)											
O=C(Nc1ccc(-c2cc(Nc3cccc(C(F)(F)F)c3)ncn2)cc1)Nc1cccc(Cl)c1F	90 (≈ 179 µM)					90 (≈ 179 µM)			78	96	inactive	inactive	inactive		inactive	inactive		inactive
Cc1ccc(NC(=O)Nc2ccc(-c3cc(Nc4cccc(C(F)(F)F)c4)ncn3)cc2)cc1C	90 (≈ 188 µM)	90 (≈ 188 µM)	60 (≈ 126 µM)		75 (≈ 157 µM)	40 (≈ 83.8 µM)		30 (≈ 62.8 µM)	16	27	inactive							inactive
COc1cccc(NC(=O)Nc2ccc(-c3cc(Nc4cccc(C(F)(F)F)c4)ncn3)cc2)c1	35 (≈ 73 µM)	30 (≈ 62.6 µM)	20 (≈ 41.7 µM)	30 (≈ 62.6 µM)	35 (≈ 73 µM)	55 (≈ 115 µM)	30 (≈ 62.6 µM)	20 (≈ 41.7 µM)	11	18								
Cc1ccccc1NC(=S)Nc1ccc(-c2cc(Nc3cccc(C(F)(F)F)c3)ncn2)cc1									0	0	inactive	inactive	inactive	inactive	inactive	inactive	inactive	inactive
O=S(=O)(Nc1ccc(-c2cc(Nc3cccc(C(F)(F)F)c3)ncn2)cc1)c1ccccc1OC(F)(F)F	10 (≈ 18 µM)	10 (≈ 18 µM)	20 (≈ 36.1 µM)	10 (≈ 18 µM)	60 (≈ 108 µM)	30 (≈ 54.1 µM)	20 (≈ 36.1 µM)	20 (≈ 36.1 µM)	0	0								
